Laboratory results from patent US9273058B2 (BRISTOL-MYERS SQUIBB COMPANY, priority 2013, dated 2016).
Read-outs that look alike come from different tables or passages of the source.

How the values were obtained:
CK1ε = CK1ε (Homo sapiens, UniProt P49674); test: CK1ε kinase assay (Caliper LabChip electrophoretic separation of fluoresceinated peptide substrate and product); assay type: biochemical; conditions: 200 pM CK1ε, 50 μM ATP, 1.5 μM peptide, 22 hours at room temperature
In short: (§1)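 Incubated for twenty-two hours at ambient temperature, then quenched with EDTA and analyzed by electrophoretic separation of unphosphorylated and phosphorylated peptide.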

CK1δ = CK1δ (Homo sapiens, UniProt P48730); test: CK1δ kinase assay (Caliper LabChip electrophoretic separation of fluoresceinated peptide substrate and product); assay type: biochemical; conditions: 200 pM CK1δ, 50 μM ATP, 1.5 μM peptide, 22 hours at room temperature
Sequence of CK1δ (P48730 whole entry): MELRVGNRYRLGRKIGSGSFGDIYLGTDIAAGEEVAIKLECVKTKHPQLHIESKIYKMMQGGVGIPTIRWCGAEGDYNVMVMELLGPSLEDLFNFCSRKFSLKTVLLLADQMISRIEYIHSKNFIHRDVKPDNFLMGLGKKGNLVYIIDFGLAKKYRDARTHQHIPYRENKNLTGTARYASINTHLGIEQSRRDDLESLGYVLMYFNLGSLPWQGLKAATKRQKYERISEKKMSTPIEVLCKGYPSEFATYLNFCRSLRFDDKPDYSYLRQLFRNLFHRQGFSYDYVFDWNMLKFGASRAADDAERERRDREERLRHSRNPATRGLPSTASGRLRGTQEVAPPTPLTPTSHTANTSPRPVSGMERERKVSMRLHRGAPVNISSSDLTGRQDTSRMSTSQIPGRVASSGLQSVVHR
In short: as §1

Sequence of CK1ε (P49674 whole entry): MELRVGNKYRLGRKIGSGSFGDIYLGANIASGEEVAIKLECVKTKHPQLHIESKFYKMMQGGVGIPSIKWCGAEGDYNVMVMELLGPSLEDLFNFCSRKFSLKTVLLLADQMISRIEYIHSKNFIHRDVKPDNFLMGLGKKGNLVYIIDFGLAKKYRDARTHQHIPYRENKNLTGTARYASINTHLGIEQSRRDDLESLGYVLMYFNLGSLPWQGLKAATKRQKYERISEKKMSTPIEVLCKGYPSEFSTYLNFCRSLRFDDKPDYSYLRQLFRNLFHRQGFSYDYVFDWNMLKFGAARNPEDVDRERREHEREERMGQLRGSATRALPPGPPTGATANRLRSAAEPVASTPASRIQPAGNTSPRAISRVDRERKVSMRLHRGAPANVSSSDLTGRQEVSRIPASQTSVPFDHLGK

With NC(=O)c1c(-c2cccc(F)c2)nn2c1CN(C(=O)NC1(C(F)(F)F)CC1)CC2 [Compound 20, 2-(3-Fluorophenyl)-N^5-(1-(trifluoromethyl)cyclopropyl)-6,7-dihydropyrazolo[1,5-a]pyrazine-3,5(4H)-dicarboxamide] the IC50 (CK1ε; read-out: CK1ε IC50 range) was 10 to 100 nM and the IC50 (CK1δ; read-out: CK1δ IC50 range) was 10 to 100 nM.
In the case of CC(C)(C)NC(=O)N1CCn2nc(-c3cn[nH]c3)c(C(N)=O)c2C1 [Compound 145, N^5-(tert-Butyl)-2-(1H-pyrazol-4-yl)-6,7-dihydropyrazolo[1,5-a] pyrazine-3,5(4H)-dicarboxamide], the IC50 (CK1ε; read-out: CK1ε) is reported as 1820 nM, the IC50 (CK1ε; read-out: CK1ε IC50 range) is reported as 100 to 2000 nM and the IC50 (CK1δ; read-out: CK1δ) is reported as 1050 nM. For the same molecule, the IC50 (CK1δ; read-out: CK1δ IC50 range) was 100 to 2000 nM.
NC(=O)c1c(-c2cccc(F)c2)nn2c1CN(C(=O)Nc1c(F)cc(F)cc1F)CC2 [Compound 40, 2-(3-Fluorophenyl)-N^5-(2,4,6-trifluorophenyl)-6,7-dihydropyrazolo[1,5-a]pyrazine-3,5(4H)dicarboxamide] showed an IC50 (CK1ε; read-out: CK1ε IC50 range) of 100 to 2000 nM and an IC50 (CK1δ; read-out: CK1δ IC50 range) of 10 to 100 nM.
NC(=O)c1c(-c2cccc(Cl)c2)nn2c1CN(C(=O)NC13CCC(CC1)CC3)CC2 [Compound A79, N^5-(Bicyclo[2.2.2]octan-1-yl)-2-(3-chlorophenyl)-6,7-dihydropyrazolo[1,5-a]pyrazine-3,5(4H)-dicarboxamide] gave an IC50 (CK1ε; read-out: CK1ε IC50 range) of 0.01 to 10 nM and an IC50 (CK1δ; read-out: CK1δ IC50 range) of 0.01 to 10 nM.
Molecule NC(=O)c1c(-c2ccc(Cl)c(Cl)c2)nn2c1CN(C(=O)NC1(c3cccnc3)CC(F)(F)C1)CC2 [Compound 313, 2-(3,4-Dichlorophenyl)-N^5-(3,3-difluoro-1-(pyridin-3-yl)cyclobutyl)-6,7-dihydropyrazolo[1,5-a]pyrazine-3,5(4H)-dicarboxamide] has an IC50 (CK1ε; read-out: CK1ε IC50 range) of 0.01 to 10 nM and an IC50 (CK1δ; read-out: CK1δ IC50 range) of 0.01 to 10 nM.
With CC(C)(C)NC(=O)N1Cc2c(C(N)=O)c(-c3ccc(F)c(Cl)c3)nn2C(CN2CCOCC2)C1 (centres unmarked) [Compound A15, N^5-(tert-Butyl)-2-(3-chloro-4-fluorophenyl)-7-(morpholinomethyl)-6,7-dihydropyrazolo[1,5-a]pyrazine-3,5(4H)-dicarboxamide] the IC50 (CK1ε; read-out: CK1ε IC50 range) was 0.01 to 10 nM and the IC50 (CK1δ; read-out: CK1δ IC50 range) was 0.01 to 10 nM.
Work on NC(=O)c1c(-c2ccc(Cl)c(Cl)c2)nn2c1CN(C(=O)NC1CC(C(F)F)C1)CC2 (centres unmarked) [Compound 254, 2-(3,4-Dichlorophenyl)-N^5-(3-(difluoromethyl)cyclobutyl)-6,7-dihydropyrazolo[1,5-a]pyrazine-3,5(4H)-dicarboxamide] yielded an IC50 (CK1ε; read-out: CK1ε IC50 range) of 0.01 to 10 nM and an IC50 (CK1δ; read-out: CK1δ IC50 range) of 0.01 to 10 nM.
In the case of CC(C)(C)NC(=O)N1CCn2nc(-c3ccncc3)c(C(N)=O)c2C1 [Compound 126, N^5-(tert-Butyl)-2-(pyridin-4-yl)-6,7-dihydropyrazolo[1,5-a]pyrazine-3,5(4H)-dicarboxamide], the IC50 (CK1ε; read-out: CK1ε) is reported as 844 nM, the IC50 (CK1ε; read-out: CK1ε IC50 range) is reported as 100 to 2000 nM and the IC50 (CK1δ; read-out: CK1δ) is reported as 442 nM. The IC50 (CK1δ; read-out: CK1δ IC50 range) was 100 to 2000 nM.
Work on CC(C)(C)NC(=O)N1CCn2nc(-c3cccc(C(N)=O)c3)c(C(N)=O)c2C1 [Compound 123, N^5-(tert-Butyl)-2-(3-carbamoylphenyl)-6,7-dihydropyrazolo[1,5-a] pyrazine-3,5(4H)-dicarboxamide] yielded an IC50 (CK1ε; read-out: CK1ε IC50 range) of 100 to 2000 nM and an IC50 (CK1δ; read-out: CK1δ IC50 range) of 10 to 100 nM.
With CC(C)(C)NC(=O)N1Cc2c(C(N)=O)c(-c3ccc(F)c(Cl)c3)nn2C(CN2CCOCC2)C1 (centres unmarked) [Compound A16, N^5-(tert-Butyl)-2-(3-chloro-4-fluorophenyl)-7-(morpholinomethyl)-6,7-dihydropyrazolo[1,5-a]pyrazine-3,5(4H)-dicarboxamide] the IC50 (CK1ε; read-out: CK1ε IC50 range) was 0.01 to 10 nM and the IC50 (CK1δ; read-out: CK1δ IC50 range) was 10 to 100 nM.
Molecule “2-(3-Chloro-4-fluorophenyl)-N^5-(3,3-difluorocyclopentyl)-6,7-dihydropyrazolo[1,5-a]pyrazine-3,5(4H)-dicarboxamide [Compound 332]” has an IC50 (CK1ε; read-out: CK1ε IC50 range) of 0.01 to 10 nM and an IC50 (CK1δ; read-out: CK1δ IC50 range) of 0.01 to 10 nM.
CC(C)(C)NC(=O)N1Cc2c(C(N)=O)c(-c3ccc(Cl)c(Cl)c3)nn2C(C(F)F)C1 (centres unmarked) [Compound A32, N^5-(tert-Butyl)-2-(3,4-dichlorophenyl)-7-(difluoromethyl)-6,7-dihydropyrazolo[1,5-a]pyrazine-3,5(4H)-dicarboxamide] showed an IC50 (CK1ε; read-out: CK1ε IC50 range) of 0.01 to 10 nM and an IC50 (CK1δ; read-out: CK1δ IC50 range) of 0.01 to 10 nM.
In the case of NC(=O)c1c(-c2ccc(F)c(Cl)c2)nn2c1CN(C(=O)NC13CCC(CC1)CC3)CC2 [Compound A58, N^5-(Bicyclo[2.2.2]octan-1-yl)-2-(3-chloro-4-fluorophenyl)-6,7-dihydropyrazolo[1,5-a]pyrazine-3,5(4H)-dicarboxamide], the IC50 (CK1ε; read-out: CK1ε IC50 range) is reported as 0.01 to 10 nM and the IC50 (CK1δ; read-out: CK1δ IC50 range) is reported as 0.01 to 10 nM.
With “N^5-(tert-Butyl)-2-(3-chloro-4-fluorophenyl)-7-(2-cyanoethyl)-6,7-dihydropyrazolo[1,5-a]pyrazine-3,5(4H)-dicarboxamide [Compound A104]” the IC50 (CK1ε; read-out: CK1ε IC50 range) was 0.01 to 10 nM and the IC50 (CK1δ; read-out: CK1δ IC50 range) was 0.01 to 10 nM.
NC(=O)c1c(-c2cccc(Cl)c2)nn2c1CN(C(=O)NC13CCC(CF)(CC1)CC3)CC2 [Compound A78, 2-(3-Chlorophenyl)-N^5-(4-(fluoromethyl)bicyclo[2.2.2]octan-1-yl)-6,7-dihydropyrazolo[1,5-a]pyrazine-3,5(4H)-dicarboxamide] showed an IC50 (CK1ε; read-out: CK1ε IC50 range) of 0.01 to 10 nM and an IC50 (CK1δ; read-out: CK1δ IC50 range) of 0.01 to 10 nM.
CC(C)(C)NC(=O)N1Cc2c(C(N)=O)c(-c3cccc(Cl)c3)nn2C(CF)C1 (centres unmarked) [Compound A5, N^5-(tert-butyl)-2-(3-chlorophenyl)-7-(fluoromethyl)-6,7-dihydropyrazolo[1,5-a] pyrazine-3,5(4H)-dicarboxamide] showed an IC50 (CK1ε; read-out: CK1ε IC50 range) of 0.01 to 10 nM and an IC50 (CK1δ; read-out: CK1δ IC50 range) of 0.01 to 10 nM.
NC(=O)c1c(-c2cccc(Cl)c2)nn2c1CN(C(=O)NC13C4C5C6C4C1C6C53)CC2 (centres unmarked) [Compound A86, N^5-(Cuban-1-yl)-2-(3-chlorophenyl)-6,7-dihydropyrazolo[1,5-a]pyrazine-3,5(4H)-dicarboxamide] gave an IC50 (CK1ε; read-out: CK1ε IC50 range) of 0.01 to 10 nM and an IC50 (CK1δ; read-out: CK1δ IC50 range) of 0.01 to 10 nM.
Molecule N#Cc1ccc(C23CCC(NC(=O)N4CCn5nc(-c6ccc(F)c(Cl)c6)c(C(N)=O)c5C4)(CC2)CC3)cc1 [Compound A51, 2-(3-Chloro-4-fluorophenyl)-N^5-(4-(4-cyanophenyl)bicyclo[2.2.2]octan-1-yl)-6,7-dihydropyrazolo[1,5-a]pyrazine-3,5(4H)-dicarboxamide] has an IC50 (CK1ε; read-out: CK1ε IC50 range) of 0.01 to 10 nM and an IC50 (CK1δ; read-out: CK1δ IC50 range) of 0.01 to 10 nM.
Molecule NC(=O)c1c(-c2cccc(Cl)c2)nn2c1CN(C(=O)NC13CCC(c4ccccc4)(CC1)CC3)CC2 [Compound A83, 2-(3-Chlorophenyl)-N^5-(4-phenylbicyclo[2.2.2]octan-1-yl)-6,7-dihydropyrazolo[1,5-a]pyrazine-3,5(4H)-dicarboxamide] has an IC50 (CK1ε; read-out: CK1ε IC50 range) of 0.01 to 10 nM and an IC50 (CK1δ; read-out: CK1δ IC50 range) of 0.01 to 10 nM.
For NC(=O)c1c(-c2cccc(Cl)c2)nn2c1CN(C(=O)NC1CC(F)(F)C1)CC21CC1 [A130], the IC50 (CK1ε; read-out: CK1ε IC50 range) was 0.01 to 10 nM and the IC50 (CK1δ; read-out: CK1δ IC50 range) was 0.01 to 10 nM.
In the case of CC(C)(C)NC(=O)N1Cc2c(C(N)=O)c(-c3ccc(Cl)c(Cl)c3)nn2C(C(C)(C)O)C1 (centres unmarked) [Compound A38, N^5-(tert-Butyl)-2-(3,4-dichlorophenyl)-7-(2-hydroxypropan-2-yl)-6,7-dihydropyrazolo[1,5-a]pyrazine-3,5(4H)-dicarboxamide], the IC50 (CK1ε; read-out: CK1ε IC50 range) is reported as 0.01 to 10 nM and the IC50 (CK1δ; read-out: CK1δ IC50 range) is reported as 0.01 to 10 nM.
Work on N#Cc1ccc(NC(=O)N2CCn3nc(-c4cccc(Cl)c4)c(C(N)=O)c3C2)cc1C(F)(F)F [Compound 159, 2-(3-Chlorophenyl)-N^5-(4-cyano-3-(trifluoromethyl)phenyl)-6,7-dihydropyrazolo [1,5-a]pyrazine-3,5(4H)-dicarboxamide] yielded an IC50 (CK1ε; read-out: CK1ε IC50 range) of 0.01 to 10 nM and an IC50 (CK1δ; read-out: CK1δ IC50 range) of 0.01 to 10 nM.
For NC(=O)c1c(-c2ccc(F)c(Cl)c2)nn2c1CN(C(=O)NC1CC(F)(F)C1)CC21CC1 [Compound A133, 2′-(3-Chloro-4-fluorophenyl)-N^5′-(3,3-difluorocyclobutyl)-4′H-spiro[cyclopropane-1,7′-pyrazolo[1,5-a]pyrazine]-3′,5′(6′H)-dicarboxamide], the IC50 (CK1ε; read-out: CK1ε IC50 range) was 0.01 to 10 nM and the IC50 (CK1δ; read-out: CK1δ IC50 range) was 0.01 to 10 nM.
